Publication PMC8449129, “Single tracer-based protocol for broad-spectrum kinase profiling in live cells with NanoBRET” (STAR Protocols, 2021)

Legend:
[1] = target: T1, NTRK1 (Homo sapiens, UniProt P04629); assay: NanoBRET target engagement, Tracer K10 displacement in live HEK293 cells; format: cell-based; settings: […] h, […] C, n = […]
T1 construct: full-length kinase, C-terminal NanoLuc fusion, transfected HEK293 cells

[2] = target: T2, ICK (Homo sapiens, UniProt Q9UPZ9); assay: cell-based; set-up: NanoBRET live-cell target engagement; % occupancy from displacement of tracer K10 on NanoLuc-kinase fusions, mean n=3; settings: HEK293, read-out: % inhibition
T2 construct: gene CILK1
T2 sequence (Q9UPZ9 whole entry, the tested form may be a part): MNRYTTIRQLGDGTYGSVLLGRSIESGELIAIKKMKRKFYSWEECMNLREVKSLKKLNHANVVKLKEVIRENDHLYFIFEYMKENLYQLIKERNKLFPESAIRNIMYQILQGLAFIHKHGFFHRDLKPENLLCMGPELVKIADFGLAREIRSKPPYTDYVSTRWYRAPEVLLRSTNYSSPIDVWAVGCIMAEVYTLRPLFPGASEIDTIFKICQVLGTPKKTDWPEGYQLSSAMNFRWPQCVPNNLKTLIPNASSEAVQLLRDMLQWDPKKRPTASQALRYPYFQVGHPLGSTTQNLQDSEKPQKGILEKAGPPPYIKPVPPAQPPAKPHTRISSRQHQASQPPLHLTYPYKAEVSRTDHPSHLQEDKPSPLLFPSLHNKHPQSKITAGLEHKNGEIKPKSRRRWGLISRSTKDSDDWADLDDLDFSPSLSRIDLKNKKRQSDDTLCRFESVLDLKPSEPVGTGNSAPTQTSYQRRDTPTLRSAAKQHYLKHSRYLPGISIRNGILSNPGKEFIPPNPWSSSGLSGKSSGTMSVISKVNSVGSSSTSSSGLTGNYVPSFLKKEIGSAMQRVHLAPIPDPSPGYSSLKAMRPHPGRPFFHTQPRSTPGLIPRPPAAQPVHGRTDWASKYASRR
Description: (§1) • 18. Prepare 10× test compounds in OptiMEM • a. Dilute the test compound to 1000× in DMSO (or the test compound solvent). […] Add 10μL per well of 10× test compound or 10μL of the DMSO control to the 96-well plates containing cells with 1× tracer. Mix on orbital shaker for 15 s at 900 rpm. • 20. Incubate the plate at 37°C + 5% CO2 incubator for 2hr. Allow plate to cool to RT for ∼15 min, then proceed to NanoBRET^TM Assay section below. • 21. Immediately before the BRET measurements, prepare 3× Complete NanoBRET^TM Nano-Glo® Substrate in OptiMEM without serum or phenol red. […] Mix gently by inverting 5–10 times in a conical tube. (The final concentration of Extracellular NanoLuc inhibitor in the 3× solution is 60 μM, for a working concentration of 20 μM.) • a. Note: 3× solutions should be used within 1.5 h after preparation. • 22. […] Incubate 2–3 min at RT. Following addition of NanoBRET^TM Nano-Glo® Substrate, measure donor emission (e.g., 450 nm) and acceptor emission (e.g., 610 nm or 630 nm) using a NanoBRET™-compatible luminometer. Fractional occupancy Quantitation • 2. Determine Fractional Occupancy with the following equation; % Occupancy = [1 – (X – Z)/( Y – Z)]∗100 • Where: • X = BRET in the presence of the test compound and tracer, • Y = BRET in the presence of the 100% BRET Control (Tracer + DMSO) • Z = BRET for the Zero BRET Control, e.g., • a. BRET from the NanoLuc Control Vector • b. BRET from Kinase/NanoLuc fusion + saturating dose of control test compound.

[3] = target: TEC (Homo sapiens, UniProt P42680); assay: cell-based; set-up: NanoBRET live-cell target engagement; % occupancy from displacement of tracer K10 on NanoLuc-kinase fusions, mean n=3; settings: HEK293, read-out: % inhibition
Chain of TEC (P42680 whole entry, the tested form may be a part): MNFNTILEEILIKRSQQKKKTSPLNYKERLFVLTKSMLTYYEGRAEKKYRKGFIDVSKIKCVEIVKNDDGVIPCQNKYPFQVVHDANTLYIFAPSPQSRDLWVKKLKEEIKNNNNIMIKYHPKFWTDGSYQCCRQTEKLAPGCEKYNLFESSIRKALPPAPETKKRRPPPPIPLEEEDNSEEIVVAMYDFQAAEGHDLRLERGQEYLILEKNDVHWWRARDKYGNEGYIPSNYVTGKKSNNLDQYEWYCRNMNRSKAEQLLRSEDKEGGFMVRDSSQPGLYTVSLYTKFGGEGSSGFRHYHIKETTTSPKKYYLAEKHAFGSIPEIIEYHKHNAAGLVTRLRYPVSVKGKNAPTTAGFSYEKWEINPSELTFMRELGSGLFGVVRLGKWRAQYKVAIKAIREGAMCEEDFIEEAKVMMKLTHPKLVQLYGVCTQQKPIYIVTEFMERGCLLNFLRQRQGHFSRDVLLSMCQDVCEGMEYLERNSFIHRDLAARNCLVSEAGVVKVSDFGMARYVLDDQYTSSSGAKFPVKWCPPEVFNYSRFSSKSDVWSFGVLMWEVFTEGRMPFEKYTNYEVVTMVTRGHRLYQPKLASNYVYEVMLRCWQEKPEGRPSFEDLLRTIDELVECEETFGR
Description: as §1

[4] = target: T3, MLTK (Homo sapiens, UniProt Q9NYL2); assay: cell-based; set-up: NanoBRET live-cell target engagement; % occupancy from displacement of tracer K10 on NanoLuc-kinase fusions, mean n=3; settings: HEK293, read-out: % inhibition
T3 construct: gene MAP3K20
T3 sequence (Q9NYL2 whole entry, the tested form may be a part): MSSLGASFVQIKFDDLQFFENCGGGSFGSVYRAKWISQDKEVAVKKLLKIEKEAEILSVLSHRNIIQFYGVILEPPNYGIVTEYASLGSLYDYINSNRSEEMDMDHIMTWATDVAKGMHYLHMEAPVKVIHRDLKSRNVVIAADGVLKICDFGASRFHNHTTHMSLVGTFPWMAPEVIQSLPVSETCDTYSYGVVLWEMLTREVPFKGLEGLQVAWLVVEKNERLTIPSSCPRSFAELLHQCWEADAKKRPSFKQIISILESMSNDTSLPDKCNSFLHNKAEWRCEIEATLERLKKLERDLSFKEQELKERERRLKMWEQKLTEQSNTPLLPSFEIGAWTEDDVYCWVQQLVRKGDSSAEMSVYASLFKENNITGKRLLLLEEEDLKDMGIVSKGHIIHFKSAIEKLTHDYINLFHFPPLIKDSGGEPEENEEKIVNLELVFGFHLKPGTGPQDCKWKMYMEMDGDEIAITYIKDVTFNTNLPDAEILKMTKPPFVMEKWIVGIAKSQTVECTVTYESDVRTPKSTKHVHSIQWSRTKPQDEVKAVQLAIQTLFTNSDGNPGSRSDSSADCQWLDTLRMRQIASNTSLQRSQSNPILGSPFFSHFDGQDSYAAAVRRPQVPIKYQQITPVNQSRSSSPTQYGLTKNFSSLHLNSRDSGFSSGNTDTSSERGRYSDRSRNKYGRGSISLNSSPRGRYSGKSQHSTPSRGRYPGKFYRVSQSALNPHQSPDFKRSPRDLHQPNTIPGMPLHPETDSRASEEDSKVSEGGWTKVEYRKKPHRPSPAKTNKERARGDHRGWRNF
Description: as §1

[5] = target: PLK2 (Homo sapiens, UniProt Q9NYY3); assay: cell-based; set-up: NanoBRET live-cell target engagement; % occupancy from displacement of tracer K10 on NanoLuc-kinase fusions, mean n=3; settings: HEK293, read-out: % inhibition
Chain of PLK2 (Q9NYY3 whole entry, the tested form may be a part): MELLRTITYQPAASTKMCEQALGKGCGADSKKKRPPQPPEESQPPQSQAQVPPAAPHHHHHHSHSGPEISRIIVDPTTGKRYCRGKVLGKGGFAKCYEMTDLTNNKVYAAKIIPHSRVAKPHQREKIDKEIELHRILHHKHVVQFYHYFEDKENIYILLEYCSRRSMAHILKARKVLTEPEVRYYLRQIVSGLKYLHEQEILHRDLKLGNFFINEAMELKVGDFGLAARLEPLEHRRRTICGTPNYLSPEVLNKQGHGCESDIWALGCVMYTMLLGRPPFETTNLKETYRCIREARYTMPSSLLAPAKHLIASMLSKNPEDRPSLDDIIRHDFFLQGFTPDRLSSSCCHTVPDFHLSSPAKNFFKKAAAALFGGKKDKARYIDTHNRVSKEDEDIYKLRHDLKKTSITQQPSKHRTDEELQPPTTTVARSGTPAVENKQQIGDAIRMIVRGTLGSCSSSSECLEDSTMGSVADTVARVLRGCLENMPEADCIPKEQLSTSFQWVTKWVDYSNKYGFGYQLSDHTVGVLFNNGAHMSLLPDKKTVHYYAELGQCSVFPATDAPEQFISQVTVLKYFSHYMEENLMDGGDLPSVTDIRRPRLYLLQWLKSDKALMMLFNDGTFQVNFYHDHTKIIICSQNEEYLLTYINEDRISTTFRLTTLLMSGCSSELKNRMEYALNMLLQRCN
Description: as §1

[6] = target: PTK2 (Homo sapiens, UniProt Q05397); assay: cell-based; set-up: NanoBRET live-cell target engagement; % occupancy from displacement of tracer K10 on NanoLuc-kinase fusions, mean n=3; settings: HEK293, read-out: % inhibition
Description: as §1

[7] = target: CDK15 (Homo sapiens, UniProt Q96Q40); assay: cell-based; set-up: NanoBRET live-cell target engagement; % occupancy from displacement of tracer K10 on NanoLuc-kinase fusions, mean n=3; settings: HEK293, read-out: % inhibition
Description: as §1

[8] = target: CDKL1 (Homo sapiens, UniProt Q00532); assay: cell-based; set-up: NanoBRET live-cell target engagement; % occupancy from displacement of tracer K10 on NanoLuc-kinase fusions, mean n=3; settings: HEK293, read-out: % inhibition
Description: as §1

[9] = target: PHKG2 (Homo sapiens, UniProt P15735); assay: cell-based; set-up: NanoBRET live-cell target engagement; % occupancy from displacement of tracer K10 on NanoLuc-kinase fusions, mean n=3; settings: HEK293, read-out: % inhibition
Description: as §1

[10] = target: STK10 (Homo sapiens, UniProt O94804); assay: cell-based; set-up: NanoBRET live-cell target engagement; % occupancy from displacement of tracer K10 on NanoLuc-kinase fusions, mean n=3; settings: HEK293, read-out: % inhibition
Description: as §1

[11] = target: SRMS (Homo sapiens, UniProt Q9H3Y6); assay: cell-based; set-up: NanoBRET live-cell target engagement; % occupancy from displacement of tracer K10 on NanoLuc-kinase fusions, mean n=3; settings: HEK293, read-out: % inhibition
Description: as §1

[12] = target: CDK9 (Homo sapiens, UniProt P50750); assay: cell-based; set-up: NanoBRET live-cell target engagement; % occupancy from displacement of tracer K10 on NanoLuc-kinase fusions, mean n=3; settings: HEK293, read-out: % inhibition
Chain of CDK9 (P50750 whole entry, the tested form may be a part): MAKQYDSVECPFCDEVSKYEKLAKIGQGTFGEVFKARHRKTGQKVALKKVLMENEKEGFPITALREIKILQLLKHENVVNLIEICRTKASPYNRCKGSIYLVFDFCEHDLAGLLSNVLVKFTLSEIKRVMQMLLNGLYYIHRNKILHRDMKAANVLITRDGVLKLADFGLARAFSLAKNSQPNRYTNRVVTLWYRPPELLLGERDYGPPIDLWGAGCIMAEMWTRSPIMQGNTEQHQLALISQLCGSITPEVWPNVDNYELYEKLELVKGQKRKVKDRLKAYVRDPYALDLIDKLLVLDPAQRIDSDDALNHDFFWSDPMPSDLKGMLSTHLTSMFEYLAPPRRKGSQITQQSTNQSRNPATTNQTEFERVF
Description: as §1

[13] = target: T4, EPHB4 (Homo sapiens, UniProt P54760); assay: NanoBRET target engagement, Tracer K10 displacement in live HEK293 cells; format: cell-based; settings: […] h, […] C, n = […]
T4 construct: full-length kinase, C-terminal NanoLuc fusion, transfected HEK293 cells

[14] = target: LTK (Homo sapiens, UniProt P29376); assay: cell-based; set-up: species or system HEK293; NanoBRET live-cell target engagement; % occupancy from displacement of tracer K10 on NanoLuc-kinase fusions, mean n=3; settings: D=C; E=100; % occupancy, tracer K10 displacement; 1 µM; binder
Chain of LTK (P29376 whole entry, the tested form may be a part): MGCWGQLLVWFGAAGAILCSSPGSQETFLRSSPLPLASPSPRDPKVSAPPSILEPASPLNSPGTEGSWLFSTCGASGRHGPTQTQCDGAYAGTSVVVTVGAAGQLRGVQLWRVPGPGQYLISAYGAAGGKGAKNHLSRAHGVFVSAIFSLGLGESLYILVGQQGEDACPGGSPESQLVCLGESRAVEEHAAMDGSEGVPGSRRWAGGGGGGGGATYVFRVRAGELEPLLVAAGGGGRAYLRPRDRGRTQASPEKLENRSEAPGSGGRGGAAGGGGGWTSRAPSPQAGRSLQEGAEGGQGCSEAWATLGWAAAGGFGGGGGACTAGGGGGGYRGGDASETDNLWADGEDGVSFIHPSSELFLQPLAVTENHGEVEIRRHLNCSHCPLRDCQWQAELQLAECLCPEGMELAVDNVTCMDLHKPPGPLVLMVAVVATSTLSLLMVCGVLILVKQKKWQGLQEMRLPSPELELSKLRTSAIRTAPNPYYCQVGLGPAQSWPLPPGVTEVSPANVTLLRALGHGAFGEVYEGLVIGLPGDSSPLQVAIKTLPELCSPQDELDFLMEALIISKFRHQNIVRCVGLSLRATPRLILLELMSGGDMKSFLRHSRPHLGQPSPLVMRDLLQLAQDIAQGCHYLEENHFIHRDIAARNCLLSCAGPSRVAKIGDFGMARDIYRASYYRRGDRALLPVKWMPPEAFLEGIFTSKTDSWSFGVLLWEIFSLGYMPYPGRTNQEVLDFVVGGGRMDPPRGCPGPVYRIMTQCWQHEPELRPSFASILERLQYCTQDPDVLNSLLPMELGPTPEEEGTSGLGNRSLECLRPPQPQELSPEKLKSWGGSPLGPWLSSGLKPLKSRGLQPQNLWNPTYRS
Description: as §1, with “BRET from the NanoLuc Control Vector • b. BRET from Kinase/NanoLuc fusion + saturating dose of control test compound.” left out

[15] = target: STK33 (Homo sapiens, UniProt Q9BYT3); assay: cell-based; set-up: species or system HEK293; NanoBRET live-cell target engagement; % occupancy from displacement of tracer K10 on NanoLuc-kinase fusions, mean n=3; settings: HEK293; D=N; E=250; % occupancy, tracer K10 displacement
Description: as §1, with “BRET from the NanoLuc Control Vector • b. BRET from Kinase/NanoLuc fusion + saturating dose of control test compound.” left out

[16] = target: T5, SBK3 (Homo sapiens, UniProt P0C264); assay: NanoBRET target engagement, Tracer K10 displacement in live HEK293 cells; format: cell-based; settings: […] h, […] C, n = […]
T5 construct: full-length kinase, N-terminal NanoLuc fusion, transfected HEK293 cells

[17] = target: T6, EPHA1 (Homo sapiens, UniProt P21709); assay: as above; format: cell-based; settings: […] h, […] C, n = […]
T6 construct: full-length kinase, C-terminal NanoLuc fusion, transfected HEK293 cells
Description: NanoBRET target engagement, Tracer K10 displacement in live HEK293 cells on EPHA1

[18] = target: T7, EPHB1 (Homo sapiens, UniProt P54762); assay: as above; format: cell-based; settings: […] h, […] C, n = […]
T7 construct: full-length kinase, C-terminal NanoLuc fusion, transfected HEK293 cells
T7 sequence (P54762 18-984): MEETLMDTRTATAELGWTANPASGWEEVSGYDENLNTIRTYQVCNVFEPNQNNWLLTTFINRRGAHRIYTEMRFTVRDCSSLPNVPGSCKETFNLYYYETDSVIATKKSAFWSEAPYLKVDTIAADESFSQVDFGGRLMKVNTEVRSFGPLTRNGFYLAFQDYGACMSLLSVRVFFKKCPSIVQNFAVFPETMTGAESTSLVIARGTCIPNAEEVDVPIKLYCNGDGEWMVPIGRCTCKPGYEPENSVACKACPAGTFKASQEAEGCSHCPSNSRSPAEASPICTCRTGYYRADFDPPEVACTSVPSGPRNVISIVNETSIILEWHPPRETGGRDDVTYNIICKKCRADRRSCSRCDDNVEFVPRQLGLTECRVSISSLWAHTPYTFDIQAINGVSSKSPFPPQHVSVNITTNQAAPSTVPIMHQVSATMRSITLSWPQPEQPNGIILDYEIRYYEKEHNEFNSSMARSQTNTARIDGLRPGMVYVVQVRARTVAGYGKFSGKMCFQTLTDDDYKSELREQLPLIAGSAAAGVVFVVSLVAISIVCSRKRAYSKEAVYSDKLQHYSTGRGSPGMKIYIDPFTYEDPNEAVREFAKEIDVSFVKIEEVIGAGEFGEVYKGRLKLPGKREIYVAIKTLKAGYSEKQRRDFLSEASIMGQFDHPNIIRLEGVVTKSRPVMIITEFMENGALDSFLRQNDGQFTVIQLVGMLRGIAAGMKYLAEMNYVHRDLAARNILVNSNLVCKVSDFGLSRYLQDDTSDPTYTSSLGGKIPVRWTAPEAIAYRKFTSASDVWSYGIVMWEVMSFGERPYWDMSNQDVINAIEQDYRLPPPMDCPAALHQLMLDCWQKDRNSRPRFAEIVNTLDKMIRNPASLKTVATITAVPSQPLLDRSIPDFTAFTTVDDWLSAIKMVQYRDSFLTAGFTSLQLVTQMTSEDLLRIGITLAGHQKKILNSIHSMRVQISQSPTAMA
Description: NanoBRET target engagement, Tracer K10 displacement in live HEK293 cells on EPHB1

[19] = target: T8, AXL (Homo sapiens, UniProt P30530); assay: as above; format: cell-based; settings: […] h, […] C, n = […]
T8 construct: full-length kinase, C-terminal NanoLuc fusion, transfected HEK293 cells
Description: NanoBRET target engagement, Tracer K10 displacement in live HEK293 cells on AXL

C[C@@H](Oc1cc(-c2cnn(C3CCNCC3)c2)cnc1N)c1c(Cl)ccc(F)c1Cl [crizotinib]
Crizotinib % occupancy, 1 uM [1]: 71 ± 2.5% | inhibition at 1 µM [2]: 3% | inhibition at 1 µM [3]: -7% | inhibition at 1 µM [4]: -3% | inhibition at 1 µM [5]: 4% | inhibition at 1 µM [6]: 40% | inhibition at 1 µM [7]: 3% | inhibition at 1 µM [8]: 2% | inhibition at 1 µM [9]: 3% | inhibition at 1 µM [10]: 35% | inhibition at 1 µM [11]: 0% | inhibition at 1 µM [12]: 4% | Crizotinib % occupancy, 1 uM [13]: 62 ± 3.6% | % inhibition [14]: 87% | inhibition at 1 µM [15]: -3% | Crizotinib % occupancy, 1 uM [16]: 41 ± 5.6% | Crizotinib % occupancy, 1 uM [17]: 75 ± 2.2% | Crizotinib % occupancy, 1 uM [18]: 68 ± 2.0% | Crizotinib % occupancy, 1 uM [19]: 68 ± 1.5%
